“And” between values parts separate entries of the source, which are not always exact repeats. Equal values may be shown once.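 The compound was tested at five concentrations on cells cultured in 96-well plates, with a 48-hour exposure period. GI50: concentration for 50% inhibition of growth.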 The source made the active and inactive calls. Rule as the data show it: active = GI50 up to about 1.1 µM and inactive = higher.
How the values were obtained:
Test in all cases: NCI-60 cell line screen, 48 h
[1] = test system: EKVX
[2] = test system: CCRF-CEM
[3] = test system: A549
[4] = test system: RXF 393
[5] = test system: K562
[6] = test system: LOX IMVI
[7] = test system: ACHN
[8] = test system: TK-10
[9] = test system: HCT-116
[10] = test system: RPMI-8226
[11] = test system: U-251
[12] = test system: SK-OV-3
[13] = test system: SNB-75
[14] = test system: SNB-19
[15] = test system: MOLT-4
[16] = test system: COLO 205
[17] = test system: SF-539
[18] = test system: UO-31
[19] = test system: SF-295

Measured: GI50

CC1CC/C(=C\c2ccc(F)cc2)C2=C1C(c1ccc(F)cc1)n1c(s/c(=C/c3cccc(Br)c3)c1=O)=N2 (stereo unspecified)
inactive: [1] > 100 µM | [2] > 100 µM | [3] > 100 µM | [4] > 100 µM | [5] > 100 µM | [6] > 100 µM | [7] > 100 µM | [8] > 100 µM | [9] > 100 µM | [10] > 100 µM | [11] > 100 µM | [12] > 100 µM | [13] > 100 µM | [14] > 100 µM | [15] > 100 µM

COc1cc(C2C(Cl)C(=O)N2c2c(C)n(C)n(-c3ccccc3)c2=O)ccc1O (stereo unspecified)
inactive: [1] 35 µM | [16] 16.3 µM | [2] 22.7 µM | [3] 26.2 µM | [4] 18.1 µM | [5] 26.6 µM | [6] 16.5 µM | [7] 20.1 µM | [17] 16.3 µM | [8] 24.7 µM | [9] 6.37 µM | [10] 18.1 µM | [11] 18 µM | [18] 16.9 µM | [12] 29.6 µM | [19] 22.2 µM | [15] 15.1 µM

COc1ccc(C[C@H]2COC(=O)[C@@H]2Cc2ccccc2)cc1OC
inactive: [1] > 100 µM | [2] > 100 µM | [3] > 100 µM | [5] > 100 µM | [6] > 100 µM | [7] > 100 µM | [8] > 100 µM | [9] > 100 µM | [10] > 100 µM | [11] > 100 µM | [12] > 100 µM | [19] > 100 µM | [14] > 100 µM | [15] > 100 µM

COc1cc(-c2c(C(C)=O)c(-c3ccccc3)n(C3OC(COC(C)=O)C(OC(C)=O)C(OC(C)=O)C3OC(C)=O)c(=S)c2C#N)ccc1O (stereo unspecified)
inactive: [1] 57.4 µM | [16] 97.1 µM | [2] 58.3 µM | [3] > 100 µM and 88.7 µM | [4] > 100 µM and 78.5 µM | [5] > 100 µM | [6] > 100 µM and 66.5 µM | [7] 55.3 µM | [9] 70.8 µM | [11] > 100 µM | [18] > 100 µM and 55.1 µM | [19] > 100 µM | [14] > 100 µM | [15] 58.9 µM and 60.1 µM

CC1=NN(C(=O)c2ccncc2)C(=O)C1/N=N/c1ccc(F)cc1 (stereo unspecified)
inactive: [1] 20 µM | [16] > 100 µM | [3] > 100 µM | [4] 58.1 µM | [5] > 100 µM | [6] > 100 µM | [7] > 100 µM | [17] 59.2 µM | [8] > 100 µM | [9] 96.8 µM | [10] > 100 µM | [18] 45.3 µM | [12] > 100 µM | [19] > 100 µM | [13] 21.5 µM | [14] > 100 µM

— ChEMBL document CHEMBL1201862, “PubChem BioAssay data set” (2004)
